These results are taken from ChEMBL document CHEMBL2203054, “Synthesis and biological evaluation of a selective N- and p/q-type calcium channel agonist” (ACS Med Chem Lett, 2012).

Test [1] has as its target Cyclin-dependent kinase 2/cyclin A (Homo sapiens, UniProt P24941). Description: Inhibition of human Cdk2/cyclin A activity. The class given is protein-complex assay.
Test [2] deals with T1, Voltage-dependent N-type calcium channel subunit alpha-1B (Homo sapiens, UniProt Q00975). In words: Agonist activity at N-type Cav2.2 channel expressed in tsA201 cell assessed as calcium current by whole-cell patch clamp method. In kind it is functional, cell-based.
Target sequence in this assay (Q00975 whole entry): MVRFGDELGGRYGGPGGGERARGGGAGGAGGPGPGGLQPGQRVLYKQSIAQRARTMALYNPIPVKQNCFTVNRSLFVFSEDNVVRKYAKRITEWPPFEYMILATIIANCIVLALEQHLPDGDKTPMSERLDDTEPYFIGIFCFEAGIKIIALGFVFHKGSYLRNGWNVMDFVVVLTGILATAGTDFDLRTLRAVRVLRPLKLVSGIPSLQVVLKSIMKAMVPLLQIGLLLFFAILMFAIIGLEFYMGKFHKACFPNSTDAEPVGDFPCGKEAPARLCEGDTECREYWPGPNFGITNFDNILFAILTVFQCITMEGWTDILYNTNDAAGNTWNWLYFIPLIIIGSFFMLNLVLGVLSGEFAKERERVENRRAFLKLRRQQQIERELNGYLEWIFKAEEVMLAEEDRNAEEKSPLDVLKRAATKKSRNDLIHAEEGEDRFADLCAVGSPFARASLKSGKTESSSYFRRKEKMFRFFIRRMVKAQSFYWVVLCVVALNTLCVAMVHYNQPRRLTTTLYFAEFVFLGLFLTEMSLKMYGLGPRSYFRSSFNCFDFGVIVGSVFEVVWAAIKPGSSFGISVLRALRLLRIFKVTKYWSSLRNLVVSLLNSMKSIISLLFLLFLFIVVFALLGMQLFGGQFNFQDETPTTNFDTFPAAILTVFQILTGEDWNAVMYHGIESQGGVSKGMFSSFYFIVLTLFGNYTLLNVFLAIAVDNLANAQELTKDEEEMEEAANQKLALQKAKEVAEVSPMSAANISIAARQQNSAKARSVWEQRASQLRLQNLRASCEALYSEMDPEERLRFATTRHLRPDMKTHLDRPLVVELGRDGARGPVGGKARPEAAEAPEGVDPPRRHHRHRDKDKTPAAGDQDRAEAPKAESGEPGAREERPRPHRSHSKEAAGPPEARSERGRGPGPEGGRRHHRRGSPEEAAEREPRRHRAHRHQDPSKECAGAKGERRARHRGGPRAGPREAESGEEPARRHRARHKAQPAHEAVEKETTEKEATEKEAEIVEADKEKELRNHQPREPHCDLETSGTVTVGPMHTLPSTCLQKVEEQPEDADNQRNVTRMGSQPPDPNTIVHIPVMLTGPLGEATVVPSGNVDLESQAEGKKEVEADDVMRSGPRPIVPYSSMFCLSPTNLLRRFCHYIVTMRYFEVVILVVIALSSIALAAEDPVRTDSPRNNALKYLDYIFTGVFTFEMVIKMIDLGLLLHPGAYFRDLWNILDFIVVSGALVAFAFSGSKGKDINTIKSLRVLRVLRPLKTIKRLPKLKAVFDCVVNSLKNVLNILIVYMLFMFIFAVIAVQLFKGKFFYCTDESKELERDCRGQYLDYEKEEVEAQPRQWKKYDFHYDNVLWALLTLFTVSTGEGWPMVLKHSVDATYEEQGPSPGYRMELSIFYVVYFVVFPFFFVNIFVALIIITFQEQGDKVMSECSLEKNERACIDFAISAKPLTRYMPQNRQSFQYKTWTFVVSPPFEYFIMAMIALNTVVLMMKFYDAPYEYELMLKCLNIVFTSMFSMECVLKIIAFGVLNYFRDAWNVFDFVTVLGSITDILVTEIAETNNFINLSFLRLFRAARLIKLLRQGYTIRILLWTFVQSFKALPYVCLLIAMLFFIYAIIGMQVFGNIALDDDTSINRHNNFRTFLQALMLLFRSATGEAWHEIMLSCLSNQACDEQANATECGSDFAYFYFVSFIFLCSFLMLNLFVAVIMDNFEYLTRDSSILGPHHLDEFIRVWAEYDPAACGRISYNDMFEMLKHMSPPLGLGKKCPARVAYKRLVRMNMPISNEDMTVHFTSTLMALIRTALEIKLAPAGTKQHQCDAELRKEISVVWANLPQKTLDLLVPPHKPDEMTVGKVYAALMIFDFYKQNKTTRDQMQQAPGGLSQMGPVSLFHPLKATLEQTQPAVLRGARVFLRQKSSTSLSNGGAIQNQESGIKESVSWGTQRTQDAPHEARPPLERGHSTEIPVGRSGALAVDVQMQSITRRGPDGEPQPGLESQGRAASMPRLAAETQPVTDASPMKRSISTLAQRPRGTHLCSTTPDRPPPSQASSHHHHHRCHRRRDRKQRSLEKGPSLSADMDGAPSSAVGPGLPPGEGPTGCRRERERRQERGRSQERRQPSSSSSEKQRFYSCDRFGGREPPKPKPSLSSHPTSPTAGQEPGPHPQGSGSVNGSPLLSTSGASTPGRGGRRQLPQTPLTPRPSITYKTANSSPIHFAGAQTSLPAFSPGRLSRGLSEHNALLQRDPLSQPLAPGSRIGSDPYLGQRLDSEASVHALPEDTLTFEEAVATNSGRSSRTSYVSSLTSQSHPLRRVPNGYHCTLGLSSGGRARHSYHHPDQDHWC
The target of test [3] is T1, Voltage-dependent N-type calcium channel subunit alpha-1B. In words: Ratio of (R)-roscovitine EC50 to compound EC50 for N-type Cav2.2 channel.
Target sequence in this assay (Q00975 whole entry, looked up): as the sequence (Q00975 whole entry) above
For test [4], the target named is Mitogen-activated protein kinase 1 (Homo sapiens, UniProt P28482). Description: Inhibition of human MAPK1.
The target of test [5] is Myosin light chain kinase, smooth muscle (Homo sapiens, UniProt Q15746). In words: Inhibition of human MLCK.
For test [6], the target named is Cyclin-dependent kinase 5/CDK5 activator 1 (Homo sapiens, UniProt Q00535). Description: Inhibition of human Cdk5/p35 activity. The class given is protein-complex assay.
Test [7] has as its target Cyclin-dependent kinase 1/cyclin B1 (Homo sapiens, UniProt P06493). In words: Inhibition of human Cdk1/cyclin B activity. In kind it is protein-complex assay.
In test [8] the target is Voltage-dependent L-type calcium channel subunit alpha-1D (Homo sapiens, UniProt Q01668). In words: Agonist activity at L-type Cav1.3 expressed in tsA201 cell assessed as calcium current by whole-cell patch clamp method. The class given is functional, cell-based.
In test [9] the target is Voltage-dependent P/Q-type calcium channel subunit alpha-1A (Homo sapiens, UniProt O00555). In words: Agonist activity at P/Q-type Cav2.1 expressed in tsA201 cell assessed as calcium current by whole-cell patch clamp method. The class given is functional, cell-based.

Where only a bound is given, the exact number is not on record here.

Chain of Myosin light chain kinase, smooth muscle (Q15746 whole entry): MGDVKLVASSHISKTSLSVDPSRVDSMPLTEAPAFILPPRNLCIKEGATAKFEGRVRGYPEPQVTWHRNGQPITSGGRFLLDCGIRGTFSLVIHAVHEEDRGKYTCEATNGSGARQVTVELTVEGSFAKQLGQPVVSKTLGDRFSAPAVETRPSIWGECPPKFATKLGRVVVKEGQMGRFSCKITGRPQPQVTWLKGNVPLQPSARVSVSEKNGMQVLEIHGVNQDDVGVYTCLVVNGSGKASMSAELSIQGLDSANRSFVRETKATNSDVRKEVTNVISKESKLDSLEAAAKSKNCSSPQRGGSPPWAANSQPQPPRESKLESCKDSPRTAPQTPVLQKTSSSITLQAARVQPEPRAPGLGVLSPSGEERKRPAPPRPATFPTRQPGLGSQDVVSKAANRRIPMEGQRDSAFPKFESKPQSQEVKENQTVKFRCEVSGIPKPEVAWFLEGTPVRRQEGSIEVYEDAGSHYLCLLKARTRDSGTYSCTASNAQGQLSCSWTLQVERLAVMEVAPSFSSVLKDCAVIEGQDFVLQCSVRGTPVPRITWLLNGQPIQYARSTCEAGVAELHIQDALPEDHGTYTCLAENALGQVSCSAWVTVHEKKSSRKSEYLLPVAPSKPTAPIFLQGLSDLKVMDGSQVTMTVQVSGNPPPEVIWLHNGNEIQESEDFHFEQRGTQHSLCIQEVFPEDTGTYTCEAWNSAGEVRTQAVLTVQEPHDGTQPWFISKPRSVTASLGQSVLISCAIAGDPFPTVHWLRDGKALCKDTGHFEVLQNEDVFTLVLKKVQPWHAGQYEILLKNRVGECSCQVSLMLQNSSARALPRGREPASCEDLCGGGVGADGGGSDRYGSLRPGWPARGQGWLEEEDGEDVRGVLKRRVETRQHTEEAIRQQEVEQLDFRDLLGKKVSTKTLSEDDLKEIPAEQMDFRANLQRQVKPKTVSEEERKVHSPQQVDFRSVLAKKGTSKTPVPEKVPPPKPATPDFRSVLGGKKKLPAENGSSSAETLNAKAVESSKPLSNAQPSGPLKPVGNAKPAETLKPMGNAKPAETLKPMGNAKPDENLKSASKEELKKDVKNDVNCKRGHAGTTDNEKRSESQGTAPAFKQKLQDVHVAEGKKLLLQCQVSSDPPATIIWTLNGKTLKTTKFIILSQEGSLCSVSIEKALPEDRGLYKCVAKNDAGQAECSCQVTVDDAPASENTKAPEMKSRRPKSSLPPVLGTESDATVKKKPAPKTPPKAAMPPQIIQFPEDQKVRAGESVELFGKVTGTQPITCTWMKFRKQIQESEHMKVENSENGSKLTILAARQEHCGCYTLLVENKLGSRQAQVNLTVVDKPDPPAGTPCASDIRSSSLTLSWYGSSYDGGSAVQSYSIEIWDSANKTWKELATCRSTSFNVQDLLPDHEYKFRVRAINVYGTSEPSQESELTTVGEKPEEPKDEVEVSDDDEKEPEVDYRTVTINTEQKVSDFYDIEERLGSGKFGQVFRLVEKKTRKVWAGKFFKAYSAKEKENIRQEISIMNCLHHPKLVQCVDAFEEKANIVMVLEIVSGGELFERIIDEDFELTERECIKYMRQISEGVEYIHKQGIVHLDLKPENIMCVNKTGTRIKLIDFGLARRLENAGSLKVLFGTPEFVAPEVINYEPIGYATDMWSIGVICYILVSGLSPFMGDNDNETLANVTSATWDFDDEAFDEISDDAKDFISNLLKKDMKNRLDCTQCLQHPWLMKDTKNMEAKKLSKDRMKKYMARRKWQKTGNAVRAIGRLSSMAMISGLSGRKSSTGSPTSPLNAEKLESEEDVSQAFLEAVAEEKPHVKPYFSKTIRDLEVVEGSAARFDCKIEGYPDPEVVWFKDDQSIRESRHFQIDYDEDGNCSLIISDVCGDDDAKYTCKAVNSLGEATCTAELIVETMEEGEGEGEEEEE
Chain of Mitogen-activated protein kinase 1 (P28482 whole entry): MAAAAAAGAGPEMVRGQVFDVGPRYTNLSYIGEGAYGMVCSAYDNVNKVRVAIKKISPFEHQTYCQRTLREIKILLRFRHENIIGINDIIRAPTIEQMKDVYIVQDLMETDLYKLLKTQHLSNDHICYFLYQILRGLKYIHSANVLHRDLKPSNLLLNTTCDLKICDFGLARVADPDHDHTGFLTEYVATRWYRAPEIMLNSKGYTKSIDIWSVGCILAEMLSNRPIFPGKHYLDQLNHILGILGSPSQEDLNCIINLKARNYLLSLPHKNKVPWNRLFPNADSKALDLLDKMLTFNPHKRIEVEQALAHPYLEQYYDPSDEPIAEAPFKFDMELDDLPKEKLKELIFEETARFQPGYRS

Consider `CC[C@H](CO)Nc1nc(NCc2ccc(C)s2)c2ncn(C)c2n1`, for which the EC50 in test [1] came to 3.04 µM; in test [2] it was 30 µM.

Consider `O=c1[nH]c2ccccc2c2[nH]c3ccc(Br)cc3c12`, for which the EC50 in test [2] is above 1000 µM.

`CC[C@H](CO)Nc1nc(NCc2ccccc2O)c2ncn(C(C)C)c2n1` [OLOMOUCINE II]: in [2], the EC50 is 80 µM.

Consider `CC[C@H](CO)Nc1nc(NCc2ccc(-c3ccccc3)cc2)c2ncn(C)c2n1`, for which, in [2], the EC50 was above 100 µM.

Take `Cn1cnc2nc(NCCO)nc(NCc3ccccc3)c21`: the EC50 in test [2] is above 1000 µM.

As for `CCCn1cnc2c(NCCc3ccccc3)nc(N[C@H](CC)CO)nc21`, in test [2], the EC50 is above 100 µM.

As to `CC[C@H](CO)Nc1nc(Nc2ccccc2)c2ncn(C)c2n1`, the EC50 in [2] is above 100 µM.

As to `CCCn1cnc2c(NCC3CC3)nc(N[C@H](CC)CO)nc21`, the EC50 in test [1] was 3.63 µM; in [2], above 100 µM.

Take `CCCn1cnc2c(NCc3ccc(-c4ccccc4)cc3)nc(N[C@H](CC)CO)nc21`: in test [2], the EC50 was above 100 µM.

For the compound `O=Nc1c(-c2c(O)[nH]c3ccccc23)[nH]c2ccccc12` [INDIRUBIN-3-MONOXIME], the EC50 in test [2] was above 1000 µM.

With `CC[C@H](CO)Nc1nc(NCc2cccnc2)c2ncn(C)c2n1`, the EC50 in [2] is above 100 µM.

On to `Cn1cnc2c(NCc3ccccc3)nc(NCCO)nc21` [OLOMOUCINE], for which the EC50 in test [2] was above 1000 µM.

As for `CCCn1cnc2c(Nc3ccccc3)nc(N[C@H](CC)CO)nc21`, the EC50 in test [2] was above 100 µM.

In the case of `CC[C@H](CO)Nc1nc(NCc2ccc(C)s2)c2ncn(C(C)C)c2n1`, in test [2], the EC50 worked out at 11.3 µM.

Turning to `CC[C@H](CO)Nc1nc(NC(c2ccccc2)c2ccccc2)c2ncn(C(C)C)c2n1`, in test [2], the EC50 is above 100 µM.

For `CC(C)n1cnc2c(NCc3ccccc3)nc(NCCO)nc21`, the EC50 in test [2] is above 1000 µM.

Take `CC(C)n1cnc2c(NCc3ccccc3)nc(NCCCO)nc21` [BOHEMINE]: in test [2], the EC50 is above 1000 µM.

As for `CCCn1cnc2c(NCc3ccccc3)nc(N[C@H](CC)CO)nc21`, the EC50 in test [2] turned out to be 14.2 µM.

Take `CC[C@H](CO)Nc1nc(NCc2ccccc2)c2ncn(C)c2n1`: the 50% effective concentration (EC50) in test [2] is above 70 µM.

`CC[C@H](CO)Nc1nc(NCCc2ccccc2)c2ncn(C(C)C)c2n1`: the EC50 in [2] is above 100 µM.

Turning to `CC[C@H](CO)Nc1nc(NC(c2ccccc2)c2ccccc2)c2ncn(C)c2n1`, the EC50 in test [2] is above 100 µM.

On to `CCCn1cnc2c(NCc3ccc(C)s3)nc(N[C@H](CC)CO)nc21`, for which the Ratio EC50 in test [3] was 4. Also, the EC50 in test [4] is above 20 µM; in [5], above 20 µM; in test [6] it was 3.03 µM; in [7], 20.6 µM; in test [8], above 100 µM; in test [9] it was 8.8 µM. In addition, the figures for the EC50 in test [1] and in test [2] were 3.29 µM and 7.21 µM, respectively.

For the compound `CC[C@H](CO)Nc1nc(NCC2CC2)c2ncn(C(C)C)c2n1`, in test [2], the EC50 was above 100 µM.

For the compound `CC[C@H](CO)Nc1nc(NCc2cccnc2)c2ncn(C(C)C)c2n1`, the EC50 in test [2] is above 100 µM.

As for `CC[C@H](CO)Nc1nc(NCc2ccc(-c3ccccc3)cc2)c2ncn(C(C)C)c2n1`, the EC50 in test [2] was above 100 µM.

In the case of `CC[C@H](CO)Nc1nc(N(Cc2ccccc2)Cc2ccccc2)c2ncn(C(C)C)c2n1`, in [2], the EC50 is above 1000 µM.

On to `CC[C@H](CO)Nc1nc(NCCc2ccccc2)c2ncn(C)c2n1`, for which the EC50 in test [2] is above 100 µM.

Consider `CCCn1cnc2c(NCc3ccc(C(F)(F)F)cc3)nc(N[C@H](CC)CO)nc21`, for which the EC50 in [2] was above 100 µM.

`CC[C@H](CO)Nc1nc(N(C)Cc2ccccc2)c2ncn(C(C)C)c2n1`: the EC50 in test [2] is above 1000 µM.

With `CCCn1cnc2c(NC(c3ccccc3)c3ccccc3)nc(N[C@H](CC)CO)nc21`, the 50% effective concentration (EC50) in [2] is above 100 µM.

`CC[C@H](CO)Nc1nc(NCc2cccc(C(F)(F)F)c2)c2ncn(C(C)C)c2n1`: the EC50 in test [2] is above 100 µM.

For the compound `CC[C@H](CO)Nc1nc(NCC2CC2)c2ncn(C)c2n1`, in [2], the EC50 is above 100 µM.

Consider `CC[C@H](CO)Nc1nc(NCc2ccccc2)n2ncc(C(C)C)c2n1`, for which the EC50 in [2] is below 100 µM.

For the compound `CCCn1cnc2c(NCc3cccnc3)nc(N[C@H](CC)CO)nc21`, the EC50 in test [2] was above 100 µM.

Consider `CN(C)CCNc1nc(NCc2ccccc2)c2ncn(C)c2n1`, for which the EC50 in test [2] is above 1000 µM.
